Assay [1] relates to glucose uptake. Description: Glucose uptake with recombinant vWF protein.
Assay [2] concerns NO production. Description: NO production with recombinant vWF protein.

“recombinant vWF protein: a recombinant vWF protein with a specific vWF sequence (SEQ ID NO: 1) (EPECNDITARLQYVKVGSCKSEVEVDIHYCQGKCASKAMYSIDINDVQDQCSC; listed as Homo sp.)”: the glucose uptake result in assay [1] is given as “significantly inhibit”. Further, the NO production entry in assay [2] is recorded as “significantly inhibit”.

Source of the values: patent US12121561B1, “Composition for treating or preventing insulin resistance” (KING FAISAL UNIVERSITY, priority 2024, dated 2024).
